“Also recorded” adds a separate entry of the source. Structures can show the parent of a compound that is named as a salt. Where two headings read alike, the source gives them in different places.
What was measured:
[1] = qualitative, by solvent, cited from earlier work
hairless dogs [2] = assay: Skin condition (remission of wrinkles) in old hairless dogs, gross observation and video macroscope; format: in vivo, dog; conditions: 0.2% and 0.02% in PEG
Method: (§1) The therapeutic efficacy of neutrophil (leukocyte) elastase inhibitors in “dermal aging” was evaluated in hairless dogs.
(§2) Two adult (old) experimental hairless dogs constructed by cross-breeding of a Mexican hairless dog and a beagle dog were used. Old dogs presenting with age-associated fine “wrinkles” , not observed in young dogs, on the body surface were used as subject animals.
5) Polyethylene glycol (PEG) (solvent control) (PEG was used as the solvent for drugs 1˜4)
(§3) Each drug was applied in one location (a total of 5 locations) on the back (5×5 cm) of each dog. The drug was applied in a dosing volume of about 4 μL/cm^2 once daily (except on Saturdays, Sundays and holidays) for 3 months.
1) Skin condition: Gross observation and observation with a video macroscope

hairless dogs [3] = assay: Histology of biopsy samples from old hairless dogs (van Gieson's stain, Weigert's stain); format: in vivo; conditions: Dog No. 8807, 3 months
Method: The therapeutic efficacy of neutrophil (leukocyte) elastase inhibitors in “dermal aging” was evaluated in hairless dogs. Two adult (old) experimental hairless dogs constructed by cross-breeding of a Mexican hairless dog and a beagle dog were used. Old dogs presenting with age-associated fine “wrinkles” , not observed in young dogs, on the body surface were used as subject animals. Each drug was applied in one location (a total of 5 locations) on the back (5×5 cm) of each dog. The drug was applied in a dosing volume of about 4 μL/cm^2 once daily (except on Saturdays, Sundays and holidays) for 3 months. 2) Histology: Observation of histological changes in biopsy samples by H-E (hematoxylin-eosin) stain (general staining) , van Gieson's stain (staining of collagen fiber) and Weigert's stain (staining of elastin fiber)

hairless dogs [4] = assay: Skin thickness: thickness of the epidermis (excluding the horny layer) in H-E stained tissue samples of old hairless dogs; format: in vivo, dog; conditions: for Thickness of the epidermis, value after the arrow (after treatment): FK706 0.2% topical once daily for 3 months; for Thickness of the epidermis, value after the arrow (after treatment) / Thickness of the epidermis, value before the arrow (initial): mean±SD
Method: as §1, §2, §3

[5] = gross observation, dog No. 8807 (10 yr old, male), about 4 μL/cm2 on the back once daily for 3 months
[6] = gross observation, dog No. 8808 (10 yr old, female), about 4 μL/cm2 on the back once daily for 3 months
[7] = observation with a video macroscope, dog No. 8807, once daily for 3 months
[8] = observation with a video macroscope, dog No. 8808, once daily for 3 months

For “WS7622A disulfate ester dipotassium salt”, the Solubility ([1]; dipotassium salt) is given as “Soluble: water, methanol; also recorded: Insoluble: chloroform, n-hexane”.

For `CC(C)C(NC(=O)[C@@H]1CCCN1C(=O)[C@@H](NC(=O)c1ccc(C(=O)NCC(=O)O)cc1)C(C)C)C(=O)C(F)(F)F` (mixture of isomers) [FK706, 3 (RS)-[[4-(carboxymethylaminocarbonyl)phenyl-carbonyl]-L-valyl-L-prolyl]amino-1,1,1-trifluoro-4-methyl-2-oxopentane], the “Order of efficacy in the elimination or remission of wrinkles” value (shortened to “Order of efficacy”) (hairless dogs [2]; [5]) was “FK706·0.1%>FK706·0.02%>FR134043·0.2%=FR134043·0.02%”, the “Order of efficacy” value (hairless dogs [2]; [6]) was “FK706·0.2%>FK706·0.02%>FR134043·0.2%=FR134043·0.02%” and the “Order of efficacy” value (hairless dogs [2]; [7]) was “FK706·0.2%>FK706·0.02%>FR134043·0.2%>FR134043·0.02%”. For the same compound, the “Order of efficacy” value (hairless dogs [2]; [8]) was “FK706·0.2%=FK706·0.02%>FR134043·0.2%=FR134043 0.02%”, the “Histological finding, Weigert's stain (elastin fiber)” value (hairless dogs [3]; topical) was “Growth of elastin fibrils (suspected to be oxytalan fiber which is said to disappear as increasing age) was found across the boundary between the epidermis and dermis” and the “Histological finding, van Gieson's stain (collagen fiber)” value (hairless dogs [3]; FK706 0.2% topical) was “Neogenesis of a thin layer of collagen fiber was found across the boundary between the epidermis and dermis”. The “Thickness of the epidermis, value after the arrow (after treatment)” value (hairless dogs [4]; Dog No. 8807) was 26.8±5.9 μm, the “Thickness of the epidermis, value before the arrow (initial)” value (hairless dogs [4]; Dog No. 8807, location treated with FK706 0.2%) was 17.0±1.9 μm and the “Thickness of the epidermis, value after the arrow (after treatment)” value (hairless dogs [4]; Dog No. 8808) was 42.0±9.0 μm. The “Thickness of the epidermis, value before the arrow (initial)” value (hairless dogs [4]; Dog No. 8808, location treated with FK706 0.2%) was 24.6±3.6 μm and the “Change in thickness of the epidermis” value (hairless dogs [4]; location treated with FK706 0.2%, p<0.05 in both Dog 8807 and Dog 8808) was “increased significantly”.

For `C/C=C1\NC(=O)C2NC(=O)C(NC(=O)C(C)C)CCCNC(=O)Nc3cc(OS(=O)(=O)O)c(OS(=O)(=O)O)cc3C[C@@H](C(=O)NC(C(C)C)C(=O)OC2C)N(C)C(=O)C(Cc2ccccc2)N2C(=O)[C@H](CC[C@H]2O)NC1=O` (some centres unmarked) [FR134043, WS7622A disulfate ester disodium salt], the “Order of efficacy” value (hairless dogs [2]; [5]) was “FK706·0.1%>FK706·0.02%>FR134043·0.2%=FR134043·0.02%”, the “Order of efficacy” value (hairless dogs [2]; [6]) was “FK706·0.2%>FK706·0.02%>FR134043·0.2%=FR134043·0.02%” and the “Order of efficacy” value (hairless dogs [2]; [7]) was “FK706·0.2%>FK706·0.02%>FR134043·0.2%>FR134043·0.02%”. For the same compound, the “Order of efficacy” value (hairless dogs [2]; [8]) was “FK706·0.2%=FK706·0.02%>FR134043·0.2%=FR134043 0.02%” and the Solubility ([1]; disodium salt) was “Soluble: water, methanol; also recorded: Insoluble: chloroform, n-hexane”.

From patent US6610748B1, “Preventives/remedies for skin aging” (Fujisawa Pharmaceutical Co., Ltd., priority 1998, dated 2003)
